{"source": "patent US11471469B2", "about": "(Lennham Pharmaceuticals, Inc., priority 2020, dated 2022)", "target": "T1, Recombinant CYP19 (aromatase) (Homo sapiens, UniProt P11511)", "T1 sequence (P11511 1-503)": "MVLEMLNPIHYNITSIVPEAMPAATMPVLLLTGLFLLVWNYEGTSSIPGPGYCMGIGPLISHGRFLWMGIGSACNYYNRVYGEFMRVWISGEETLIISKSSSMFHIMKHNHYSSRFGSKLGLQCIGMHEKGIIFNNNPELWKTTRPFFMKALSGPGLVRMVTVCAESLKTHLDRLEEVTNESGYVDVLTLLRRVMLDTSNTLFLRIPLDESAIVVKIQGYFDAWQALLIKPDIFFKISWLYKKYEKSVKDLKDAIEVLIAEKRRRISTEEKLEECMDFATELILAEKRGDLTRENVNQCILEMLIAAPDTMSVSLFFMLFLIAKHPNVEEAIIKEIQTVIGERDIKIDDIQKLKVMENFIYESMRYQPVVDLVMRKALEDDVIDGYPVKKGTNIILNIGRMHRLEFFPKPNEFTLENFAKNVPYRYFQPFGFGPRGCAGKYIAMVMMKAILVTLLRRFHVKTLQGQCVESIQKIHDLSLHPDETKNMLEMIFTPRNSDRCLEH", "test": "Metabolic stability in the presence of recombinant CYP19 (aromatase)", "method": "The incubation conditions used are described in Table 1.\nThe analytical method used is described in Table 2.", "key": {"[1]": {"conditions": "recombinant human CYP19, compared with testosterone"}}, "data": [{"smiles": "[2H]C([2H])([2H])[C@]12CCC(=O)C=C1CC[C@H]1[C@@H]3CC[C@H](O)[C@@]3(C)CC[C@@H]12", "note": "[Testosterone-19-d3, testosterone-19-d3]", "values": [{"measurement": "half-life (t1/2) in aromatase, times longer than that of non-isotopically enriched testosterone", "setting": "recombinant human CYP19, 0.5 μM, 4 pmol/ml or 2 μM, 10 pmol/ml, NADPH 1 mM, 0-60 min at 37° C.", "value": "4-7 times"}, {"measurement": "clearance by aromatase", "setting": "[1]", "value": "more resistant to clearance by aromatase"}, {"measurement": "metabolic stability in the presence of aromatase", "setting": "[1]", "value": "substantially higher stability than testosterone"}]}]}
